We go through 2 compounds from paper PMC6232145, “Intrinsic disorder in the regulatory N-terminal domain of diacylglycerol acyltransferase 1 from Brassica napus” (Scientific Reports, 2018).

The target in experiment [1] is T1, Brassica napus diacylglycerol acyltransferase 1 (BnaDGAT1, isoform BnaC.DGAT1.a) (Brassica napus, UniProt Q9M4V2).
T1 construct: gene DGAT1-4; BnaDGAT1_1-113, cytoplasmic N-terminal domain (residues 1-113), N-terminal 10 x His-tag
T1 sequence (Q9M4V2 1-113): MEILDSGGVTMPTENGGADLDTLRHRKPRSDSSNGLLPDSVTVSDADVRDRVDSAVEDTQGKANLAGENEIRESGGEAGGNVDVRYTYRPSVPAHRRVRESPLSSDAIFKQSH
Nature of the experiment: ITC ([…] stoichiometry); supported by CD. Type of experiment: binding.

Experiment [2] concerns the target T1, Brassica napus diacylglycerol acyltransferase 1 (BnaDGAT1, isoform BnaC.DGAT1.a). The experiment is described as follows: ITC ([…] stoichiometry); supported by thermal shift (about […] degree Tm increase) and CD. It counts as binding.

For orientation: Kd means a measure of binding affinity in units of concentration. Consider `CC(C)(COP(=O)(O)OP(=O)(O)OC[C@H]1O[C@@H](n2cnc3c(N)ncnc32)[C@H](O)[C@@H]1OP(=O)(O)O)[C@@H](O)C(=O)NCCC(=O)NCCS` [CoA], for which the Kd in experiment [1] was found to be 60 ± 10 µM.
Turning to `CCCCCCCC/C=C\CCCCCCCC(=O)SCCNC(=O)CCNC(=O)[C@H](O)C(C)(C)COP(=O)(O)OP(=O)(O)OC[C@H]1O[C@@H](n2cnc3c(N)ncnc32)[C@H](O)[C@@H]1OP(=O)(O)O` [oleoyl-CoA], the dissociation constant Kd in experiment [2] stood at 10 ± 0.01 µM.
